# Data published in BindingDB's records for doi:10.1016/0960-894X(95)00473-7 (1995).
# Molecular target: 5-hydroxytryptamine receptor 1D (Bos taurus)
# Assay: Ability to bind to 5-hydroxytryptamine 1D receptor of calf substantia nigra
row,SMILES,IC50 [nM]
1,c1ccc2c(c1)CC(CNCCCNC1=NCCCN1)O2 (stereo not given),126
2,c1ccc2c(c1)CCC(CNCCCNc1cnccn1)O2 (stereo not given),10
3,O=C1CCCN=C(NCCCNCC2CCc3ccccc3O2)N1 (stereo not given),158
4,c1ccc2c(c1)CCC(CNCCCNc1ccncn1)O2 (stereo not given),10
5,c1ccc2c(c1)CCC(CNCCCNC1=NCCCN1)C2 (stereo not given),40
6,c1ccc2c(c1)CCC(CNCCCNc1nccs1)O2 (stereo not given),7.9
7,Fc1ccc2c(c1)CCC(CNCCCNC1=NCCCN1)O2 (stereo not given),7.9
8,c1ccc2c(c1)CCC(CNCCCCCNC1=NCCCN1)O2 (stereo not given),10

# These reach a lower IC50. Values come first.
row,IC50 [nM],SMILES
1,4,c1ccc2c(c1)CCC(CNCCCNC1=NCCCC1)O2 (stereo not given)
2,1.6,c1cnc(NCCCNCC2CCc3ccccc3O2)nc1 (stereo not given)
3,3.2,COc1ccc2c(c1)OC(CNCCCNC1=NCCCN1)CC2 (stereo not given)
4,2,Clc1ccc(NCCCNCC2CCc3ccccc3O2)nn1 (stereo not given)
5,6.3,c1ccc2c(c1)CCC(CNCCCNC1=NCCN1)O2 (stereo not given)
6,3.2,CC(C)NC(=N)NNCCCNCC1CCc2ccccc2O1 (stereo not given)
7,0.794,COc1cccc2c1OC(CNCCCNC1=NCCCN1)CC2 (stereo not given)
